From DBAASP
Converted amounts (≈) assume the structure as drawn. “And” between values parts separate entries of the source, which are not always exact repeats. Identical values can stand only once. Values belong to the compound of their own block, whether it stands above or below them.

Assays:
Assay in all cases: ≥ marks a high value that may be exact or a test limit, other limits are often not marked, values filed in µg/mL are converted to µM
Escherichia coli E416-17 = tested on: Escherichia coli E416-17
[1] = tested on: Staphylococcus aureus M838-17
[2] = tested on: Staphylococcus aureus USA 300
[3] = tested on: Escherichia coli ATCC 25922
Escherichia coli E423-17 = tested on: Escherichia coli E423-17
Escherichia coli K-12 = tested on: Escherichia coli K-12
[4] = tested on: Candida viswanathii NBRC 10321
[5] = tested on: Pseudomonas putida NBRC 100650
[6] = tested on: Staphylococcus epidermidis NBRC 12993
[7] = tested on: Escherichia coli NBRC 3972
[8] = tested on: Aspergillus oryzae NBRC 100959
[9] = tested on: Micrococcus luteus NBRC 3333
[10] = tested on: Acinetobacter baumannii BCRC 14B0100
[11] = tested on: Pseudomonas aeruginosa ATCC 27853
[12] = tested on: Staphylococcus aureus ATCC 25923
[13] = tested on: Staphylococcus epidermidis ATCC 12228
[14] = tested on: Staphylococcus aureus ATCC 33591
[15] = tested on: Klebsiella pneumoniae ATCC 13866
[16] = tested on: Escherichia coli ATCC 11229
[17] = tested on: Staphylococcus aureus ATCC 29213
[18] = tested on: Aeromonas hydrophila ATCC 35654
[19] = tested on: Micrococcus luteus ATCC 49732
[20] = tested on: Staphylococcus aureus ATCC 43300
[21] = tested on: Lacticaseibacillus rhamnosus 7469
[22] = tested on: Lacticaseibacillus rhamnosus 1.0925
[23] = tested on: Lactiplantibacillus plantarum 8014
[24] = tested on: Lacticaseibacillus rhamnosus 1.0386
Escherichia coli UB1005 = tested on: Escherichia coli UB1005
[25] = tested on: Lacticaseibacillus rhamnosus 1.0911
[26] = tested on: Lacticaseibacillus rhamnosus 1.0385
Cladosporium sp. = tested on: Cladosporium sp.
Micrococcus luteus A270 = tested on: Micrococcus luteus A270
Escherichia coli SBS 363 = tested on: Escherichia coli SBS 363
Penicillium expansum = tested on: Penicillium expansum
Cryptococcus neoformans = tested on: Cryptococcus neoformans
Escherichia coli = tested on: Escherichia coli
[27] = tested on: Trichophyton rubrum ATCC 28189
[28] = tested on: Candida albicans ATCC 24433
Staphylococcus aureus = tested on: Staphylococcus aureus
[29] = tested on: Candida parapsilosis ATCC 22019

MIC (Escherichia coli E416-17): 16 µM (≈ 21.5 µg/mL)
MIC [1]: 4 µM (≈ 5.38 µg/mL)
MIC [2]: 4 µM (≈ 5.38 µg/mL)
MIC [3]: 16 µM (≈ 21.5 µg/mL)
MIC (Escherichia coli E423-17): ≥ 32 µM
MIC (Escherichia coli K-12): 16 µM (≈ 21.5 µg/mL)
SMILES: CC(C)C[C@H](NC(=O)[C@H](Cc1c[nH]c2ccccc12)NC(=O)[C@H](Cc1c[nH]c2ccccc12)NC(=O)[C@@H](N)Cc1c[nH]c2ccccc12)C(=O)N[C@@H](CCCN=C(N)N)C(=O)N[C@@H](CCCN=C(N)N)C(=O)N[C@@H](CCCN=C(N)N)C(=O)N[C@@H](Cc1c[nH]c2ccccc12)C(=O)O [WWWLRRRW]

MIC [4]: 8.38 µM (≈ 12.5 µg/mL)
MIC [5]: ≥ 33.5 µM
MIC [6]: ≥ 33.5 µM
MIC [7]: 8.38 µM (≈ 12.5 µg/mL)
MIC [8]: 8.38 µM (≈ 12.5 µg/mL)
MIC [9]: 8.38 µM (≈ 12.5 µg/mL)
SMILES: CC[C@H](C)[C@H](NC(=O)[C@H](CCCCN)NC(=O)[C@@H](N)CCCN=C(N)N)C(=O)N[C@@H](CCCCN)C(=O)N[C@H](C(=O)N[C@@H](Cc1ccc(O)cc1)C(=O)N[C@@H](CC(C)C)C(=O)N[C@@H](CCCN=C(N)N)C(=O)N[C@@H](CCCN=C(N)N)C(=O)N[C@@H](CCSC)C(=O)N[C@@H](CCCCN)C(=O)O)C(C)C [RKIKVYLRRMK]

MIC [10]: 0.708 µM and 1.42 µM
MIC [11]: 0.708 µM and 1.42 µM
MIC [3]: 1.42 µM and 0.708 µM
MIC [12]: 1.42 µM and 0.708 µM
SMILES: CC[C@H](C)[C@H](NC(=O)[C@H](CCCN=C(N)N)NC(=O)[C@H](CCC(N)=O)NC(=O)[C@@H](NC(=O)[C@@H](NC(=O)[C@H](CCCN=C(N)N)NC(=O)[C@H](CCCCN)NC(C)=O)[C@@H](C)CC)C(C)C)C(=O)N[C@@H](CCCCN)C(=O)N[C@@H](CC(=O)O)C(=O)N[C@@H](Cc1ccccc1)C(=O)N[C@@H](CC(C)C)C(=O)N[C@@H](CCCN=C(N)N)C(=O)N[C@@H](C)C(=O)NCC(=O)N1CCC[C@H]1C(=O)N[C@@H](CCCN=C(N)N)C(=O)N[C@@H](CCCN=C(N)N)C(=O)N[C@@H](Cc1c[nH]c2ccccc12)C(=O)N[C@@H](Cc1c[nH]c2ccccc12)C(=O)N[C@@H](CCCN=C(N)N)C(=O)N[C@@H](Cc1c[nH]c2ccccc12)C(N)=O [KRIVQRIKDFLRAGPRRWWRW]

MIC [11]: 8.04 µM (≈ 16 µg/mL)
MIC [13]: 32.2 µM (≈ 64 µg/mL)
MIC [14]: ≥ 64.3 µM
MIC [15]: ≥ 32.2 µM
MIC [12]: 32.2 µM (≈ 64 µg/mL)
MIC [16]: ≥ 32.2 µM
MIC [17]: 32.2 µM (≈ 64 µg/mL)
SMILES: CC[C@H](C)[C@H](NC(=O)CN)C(=O)N[C@@H](C)C(=O)NCC(=O)N[C@@H](CC(C)C)C(=O)N[C@@H](CC(C)C)C(=O)N[C@@H](CCCN=C(N)N)C(=O)N[C@@H](CO)C(=O)N[C@@H](Cc1ccccc1)C(=O)N[C@H](C(=O)N[C@@H](CCCN=C(N)N)C(=O)N[C@@H](CCSC)C(=O)N[C@@H](CC(C)C)C(=O)N[C@@H](C)C(=O)N[C@@H](CCCCN)C(=O)N[C@H](C(=O)N[C@@H](CCSC)C(=O)NCC(=O)NCC(=O)O)[C@@H](C)CC)C(C)C [GIAGLLRSFVRMLAKIMGG]

MIC [18]: 8.4 µM (≈ 17.7 µg/mL)
MIC [3]: 8.4 µM (≈ 17.7 µg/mL)
MIC [12]: 7.2 µM (≈ 15.1 µg/mL)
MIC [19]: 7.2 µM (≈ 15.1 µg/mL)
SMILES: CC[C@H](C)[C@H](NC(=O)[C@H](CC(C)C)NC(=O)[C@H](CCC(N)=O)NC(=O)[C@@H](NC(=O)[C@H](CCCN=C(N)N)NC(=O)[C@@H](NC(=O)[C@H](CS)NC(=O)[C@H](CCCCN)NC(=O)[C@@H](N)CCCN=C(N)N)C(C)C)C(C)C)C(=O)N[C@@H](CCCCN)C(=O)N[C@@H](CC(N)=O)C(=O)NCC(=O)N[C@@H](CCCCN)C(=O)N[C@@H](CCCCN)C(=O)N[C@H](C(=O)N[C@H](C(=O)N[C@@H](C)C(=O)N[C@@H](Cc1ccccc1)C(N)=O)[C@@H](C)O)[C@@H](C)CC [RKCVRVQLIKNGKKITAF]

MIC [20]: 2 µM (≈ 3.49 µg/mL)
MIC [21]: ≥ 64 µM
MIC [22]: ≥ 64 µM
MIC [11]: 4 µM (≈ 6.99 µg/mL)
MIC [24]: ≥ 64 µM
MIC [13]: 4 µM (≈ 6.99 µg/mL)
MIC (Escherichia coli UB1005): 2 µM (≈ 3.49 µg/mL)
MIC [25]: ≥ 64 µM
MIC [26]: ≥ 64 µM
SMILES: NC(=O)[C@H](CCCN=C(N)N)NC(=O)[C@H](CCCN=C(N)N)NC(=O)[C@H](Cc1c[nH]c2ccccc12)NC(=O)[C@H](CO)NC(=O)[C@H](Cc1c[nH]c2ccccc12)NC(=O)[C@H](Cc1c[nH]c2ccccc12)NC(=O)[C@H](Cc1c[nH]c2ccccc12)NC(=O)[C@H](CO)NC(=O)[C@H](Cc1c[nH]c2ccccc12)NC(=O)[C@H](CCCN=C(N)N)NC(=O)[C@@H](N)CCCN=C(N)N [RRWSWWWSWRR]
MIC [23]: ≥ 64 µM

MIC [11]: 164 µM and > 82 µM
MIC (Cladosporium sp.): ≥ 164 µM
MIC (Micrococcus luteus A270): ≥ 164 µM
MIC (Escherichia coli SBS 363): ≥ 82 µM
MIC (Penicillium expansum): ≥ 164 µM
MIC (Cryptococcus neoformans): ≥ 164 µM
SMILES: CSCC[C@H](NC(=O)CNC(=O)[C@H](Cc1ccccc1)NC(=O)[C@H](Cc1ccccc1)NC(=O)CNC(=O)[C@H](C)NC(=O)[C@H](C)NC(=O)[C@@H]1CCCN1C(=O)[C@H](C)N)C(=O)N[C@@H](CCCN=C(N)N)C(=O)O [APAAGFFGMR]

MIC (Escherichia coli): > 298 µM
MIC [27]: ≥ 298 µM
MIC [28]: ≥ 298 µM
MIC (Staphylococcus aureus): > 298 µM
MIC [29]: ≥ 298 µM
SMILES: CC[C@H](C)[C@H](NC(=O)[C@H](CCCCN)NC(=O)[C@H](CCC(=O)O)NC(=O)[C@H](CO)NC(=O)[C@H](CCCN=C(N)N)NC(=O)[C@@H](N)CO)C(=O)N[C@H](C(=O)N[C@@H](Cc1cnc[nH]1)C(=O)N[C@@H](CCC(N)=O)C(=O)N[C@@H](CC(C)C)C(=O)N[C@@H](Cc1ccccc1)C(N)=O)C(C)C [SRSEKIVHQLF]
